Values of other authors, collected in patent US20080069871A1, “H[…] DETERRENT DELIVERY SYSTEM” (priority 2006, published 2008).

Details: stated as reason for use as model drug

Structure (SMILES): Cc1ncc([N+](=O)[O-])n1CCO [metronidazole, Metronidazole]
- solubility in water and aqueous ethanol solutions: highly soluble
